Data: PubChem BioAssay AID1845211 (Molecular Pharmacology Branch, DTP, NCI, 2023)

Test system: NCI-H322M multicellular tumor spheroids, viability (% test/control)
Assay: Anticancer human tumor NCI-H322M cell line growth inhibition;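 as to viability, T/C: spheroids exposed to compound for seven days before readout; 100% = DMSO vehicle control wells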
Settings: for IC50: curve of first compound; for viability, T/C: stronger effect = lower value
Source text: Multicellular complex tumor spheroid response to DNA repair inhibitors in combination with DNA-damaging drugs
This study explores the anticancer activities of DNA-damaging drugs and inhibitors of DNA damage repair, both as single agents and in combinations. Complex tumor spheroids comprised of malignant cells, endothelial cells and mesenchymal stem cells served as an in vitro model for human solid tumors. This model system incorporates physiologically relevant features and patient-derived or established malignant cell lines with clinically relevant genetic alterations from many tumor types. Twenty-six patient-derived or established malignant cell lines were evaluated representing sarcoma, melanoma, small cell lung cancer (SCLC), non-small cell lung cancer (NSCLC), as well as bladder, ovarian and pancreatic cancers. The concentration ranges selected for each drug and investigational agent were based upon clinically achievable concentrations if the clinical Cmax of the agent was known.
Compounds. The drugs and compounds olaparib (NSC753686), talazoparib (NSC767125), berzosertib (NSC777718), elimusertib (NSC800525), nedisertib (NSC802822), VX-984 (NSC792969), AZD-1390 (NSC803789), temozolomide (NSC362856), topotecan (NSC609699), trabectedin (NSC813783), staurosporine (NSC755774), and gemcitabine (NSC613327) were obtained from the National Cancer Institute (NCI) Developmental Therapeutics Program Chemical Repository. The FDA-approved anticancer drug set is available from the Developmental Therapeutics Program at https://dtp.cancer.gov/organization/dscb/obtaining/available_plates.htm. […] The stock solutions were prepared in dimethyl sulfoxide (DMSO, Sigma-Aldrich, St. Louis, MO, cat. D2650) at 400-fold the tested concentration and stored at -70 degrees C. Prior to their use, the stock solutions were diluted in fresh medium and the final DMSO concentration in the assay was 0.25% (v/v). All drugs and investigational agents were tested over a range starting from a high concentration at or near the clinical Cmax and decreasing in half-log increments. If the clinical Cmax for an agent had not been determined, the highest concentration tested was 10 microM.
Cell Lines. The patient-derived cancer cell (PDC) lines: 156681-154-R-J1-PDC, 283228-195-R-J1-PDC, 287954-098-R-J1-PDC, 292921-168-R-J2-PDC, 349418-098-R-PDC, 425362-245-T-J1-PDC, 556581-035-R-J1-PDC, and BL0293-F563-PDC were received from the NCI Patient-Derived Models Repository (PDMR, https://pdmr.cancer.gov). The established cell lines HS-SY-2 (RRID:CVCL_8719), MPNST, and SYO-1 (RRID:CVCL_7146) were obtained from the Sloan Kettering Institute. The alveolar soft parts sarcoma cell line ASPS-1 (RRID:CVCL_S738) was established at the NCI and grown from internal seed stocks. The following established cell lines were purchased from the American Type Culture Collection (ATCC, Manassas, VA): G-401 (ATCC, cat. CRL-1441, RRID:CVCL_0270), SW982 (ATCC, cat. HTB-93, RRID:CVCL_1734), VA-ES-BJ (ATCC, cat. CRL-2138, RRID:CVCL_1785), NCI-H719 (ATCC, cat. CRL-5837, RRID:CVCL_1582), NCI-H196 (ATCC, cat. CRL-5823, RRID:CVCL_1509), NCI-H841 (ATCC, cat. CRL-5845, RRID:CVCL_1595), NCI-H1618 (ATCC, cat. CRL-5879, RRID:CVCL_1480), NCI-H1876 (ATCC, cat. CRL-5902, RRID:CVCL_1503), DMS 114 (ATCC, cat. CRL-2066; RRID:CVCL_1174), NCI-H211 (ATCC, cat. CRL-5824; RRID:CVCL_1529), and SW 1271 (ATCC, cat. CRL-2177, RRID:CVCL_1716). The small cell lung cancer cell line COR-L88 was purchased from Sigma-Aldrich (cat. 92031917-1VL, RRID:CVCL_1141). The non-small cell lung cancer cell lines NCI-H226 (RRID:CVCL_1544) and NCI-H322M (RRID:CVCL_1557) were established at the NCI and grown from internal seed stocks. Pooled donor human umbilical vein endothelial cells (HUVEC, Lonza, cat. CC-2519) and human mesenchymal stem cells (hMSC, Lonza, cat. PT-2501) were purchased from Lonza (Walkersville, MD).
Cell Culture. All cells were maintained in an incubator at 37 degrees C and 5% CO2 with 95% humidity. […]

SMILES: [2H]c1nc(C)nc([2H])c1-c1cc(NC[C@@H](C)c2cccc3c(C(=O)NC)ccnc23)ncn1 + CC[C@@]1(O)C(=O)OCc2c1cc1n(c2=O)Cc2cc3c(CN(C)C)c(O)ccc3nc2-1
- IC50 (second compound 0.003 µM): > 10 µM
- IC50 (second compound 0.00949 µM): > 10 µM
- IC50 (second compound 0.03 µM): > 10 µM
- IC50 (second compound 0.0949 µM): > 10 µM
- IC50 (second compound 0.3 µM): > 10 µM
- viability, T/C (second compound 0.003 µM, first compound 0.0316 µM): 91.8%
- viability, T/C (second compound 0.003 µM, first compound 0.1 µM): 128%
- viability, T/C (second compound 0.003 µM, first compound 0.316 µM): 94.1%
- viability, T/C (second compound 0.003 µM, first compound 1 µM): 84.1%
- viability, T/C (second compound 0.003 µM, first compound 3.16 µM): 112%
- viability, T/C (second compound 0.003 µM, first compound 10 µM): 103%
- viability, T/C (second compound 0.00949 µM, first compound 0.0316 µM): 86.6%
- viability, T/C (second compound 0.00949 µM, first compound 0.1 µM): 89.9%
- viability, T/C (second compound 0.00949 µM, first compound 0.316 µM): 105%
- viability, T/C (second compound 0.00949 µM, first compound 1 µM): 89.9%
- viability, T/C (second compound 0.00949 µM, first compound 3.16 µM): 89.8%
- viability, T/C (second compound 0.00949 µM, first compound 10 µM): 117%
- viability, T/C (second compound 0.03 µM, first compound 0.0316 µM): 77.2%
- viability, T/C (second compound 0.03 µM, first compound 0.1 µM): 75.5%
- viability, T/C (second compound 0.03 µM, first compound 0.316 µM): 76.7%
- viability, T/C (second compound 0.03 µM, first compound 1 µM): 82.9%
- viability, T/C (second compound 0.03 µM, first compound 3.16 µM): 114%
- viability, T/C (second compound 0.03 µM, first compound 10 µM): 103%
- viability, T/C (second compound 0.0949 µM, first compound 0.0316 µM): 80.6%
- viability, T/C (second compound 0.0949 µM, first compound 0.1 µM): 80.7%
- viability, T/C (second compound 0.0949 µM, first compound 0.316 µM): 78.3%
- viability, T/C (second compound 0.0949 µM, first compound 1 µM): 74.5%
- viability, T/C (second compound 0.0949 µM, first compound 3.16 µM): 72.5%
- viability, T/C (second compound 0.0949 µM, first compound 10 µM): 85.5%
- viability, T/C (second compound 0.3 µM, first compound 0.0316 µM): 72.2%
- viability, T/C (second compound 0.3 µM, first compound 0.1 µM): 59%
- viability, T/C (second compound 0.3 µM, first compound 0.316 µM): 60.2%
- viability, T/C (second compound 0.3 µM, first compound 1 µM): 60.3%
- viability, T/C (second compound 0.3 µM, first compound 3.16 µM): 62.2%
- viability, T/C (second compound 0.3 µM, first compound 10 µM): 64.9%
